Tests used:
Assay type in all cases: in vivo, C57BL/6 mice
B16-F10 tumor cells = test: B16-F10 therapeutic tumor model; conditions: B16-F10 SC implanted
[1] = system: antigen-specific CD4 T cells; test: CD4 T cell response by intracellular cytokine staining of blood; conditions: LP delivered as SNP-7/8a; × = immunogenic
[2] = system: antigen-specific CD8 T cells; test: CD8 T cell response by intracellular cytokine staining of blood; conditions: LP delivered as SNP-7/8a; × = immunogenic; listed as M07

Sequence	Tumor control, neoantigen as LP + polyIC by SC route (B16-F10 tumor cells; days 1, 8 and 15 with anti-PD-L1 IP)	CD4 response, present study, SNP-7/8a [1]	CD8 response, present study, SNP-7/8a [2]	Tumor control, neoantigen as SNP-7/8a by IV route (B16-F10 tumor cells; with anti-PD-L1 IP)
ELINFKRKRVAAFQKNLIEMSELEIKH [Compound B16-M39]	no efficacy observed	–	–	–
TAKSVMCTYSPPLDKLFCQLAKTCPVQ [Compound B16-M07]	–	no significant CD4 T cell response	induced a CD8 T cell response	improved control of tumor growth

Source: paper PMC7065950 (Nature biotechnology, 2020)
